PubChem BioAssay (NCI)
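These data come from cells grown in 96-well plates and exposed to compound for 48 hours at five concentrations. Abbreviation: GI50, concentration required for 50% inhibition of growth. At the TGI there is no net growth.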

Assays:
Test in all cases: NCI-60 cell line screen, 48 h
MDA-N = test system: MDA-N
DLD-1 colon = test system: DLD-1 colon
BT-549 breast = test system: BT-549 breast
LXFL 529 NSCLC = test system: LXFL 529 NSCLC
T-47D breast = test system: T-47D breast
M19-MEL melanoma = test system: M19-MEL melanoma
DU-145 prostate = test system: DU-145 prostate
MCF7 breast = test system: MCF7 breast
PC-3 prostate = test system: PC-3 prostate
MDA-MB-231 breast = test system: MDA-MB-231 breast
XF 498 CNS = test system: XF 498 CNS
786-0 renal = test system: 786-0 renal
DMS 114 small cell lung = test system: DMS 114 small cell lung
HOP-18 NSCLC = test system: HOP-18 NSCLC
RXF-631 renal = test system: RXF-631 renal

SMILES	TGI (MDA-N) [µM]	TGI (DLD-1 colon) [µM]	TGI (BT-549 breast) [µM]	TGI (LXFL 529 NSCLC) [µM]	TGI (T-47D breast) [µM]	TGI (M19-MEL melanoma) [µM]	TGI (MDA-MB-231 breast) [µM]	TGI (XF 498 CNS) [µM]	TGI (786-0 renal) [µM]	TGI (DU-145 prostate) [µM]	TGI (MCF7 breast) [µM]	TGI (PC-3 prostate) [µM]	TGI (DMS 114 small cell lung) [µM]	other results
COc1cc2c(cc1O)CCN[C@@]21CS[C@H]2c3c(OC(C)=O)c(C)c4c(c3C(COC1=O)N1C2C2c3c(cc(C)c(OC)c3O)CC([C@@H]1O)N2C)OCO4 (some centres not stated)	0.0108	0.0013	0.00987	4.31e-05	> 1	< 1e-06	0.0357	< 1e-06						GI50 (MDA-N): 2.47 nM; GI50 (DU-145 prostate): 4.62 nM; GI50 (MCF7 breast): 0.277 nM; GI50 (PC-3 prostate): 4.29 nM; GI50 (MDA-MB-231 breast): 3.25 nM
N=C(N)SC1c2ccccc2-c2cc([N+](=O)[O-])ccc21 (configuration not stated)	10.9		19.3		16.2		23.6		14.9	15.9	12.4	13.8		
C/C=C1/CN2CC[C@@H]3c4ccccc4N4[C@H](C(=O)OC)[C@H]1C[C@H]2[C@]34/C=C/C1=COC[C@@H]2[C@H]1C[C@H]1c3c(c4ccccc4n3C)C[C@@H]2N1C	5.41		8.05		8.68		8.93			11.9	8.67	6.09		
O=S(=O)(O)c1cc(O)c2c(O)c(N=Nc3ccc(/C=C/c4ccc(N=Nc5c(S(=O)(=O)O)cc6cc(S(=O)(=O)O)cc(O)c6c5O)cc4S(=O)(=O)O)c(S(=O)(=O)O)c3)c(S(=O)(=O)O)cc2c1		> 100		> 100		> 100		> 100	> 100				> 100	TGI (HOP-18 NSCLC): > 100 µM
CC(=O)O[C@H]1CC[C@]2(C)[C@H]3C(=O)C=C4[C@@H]5C[C@](C)(C(=O)N6CCCNCC6)CC[C@]5(C)CC[C@@]4(C)[C@]3(C)CC[C@H]2C1(C)C										3.15				GI50 (DU-145 prostate): 1710 nM
Nc1nc(SCCC/C=C/B(O)O)nc2c1ncn2C1OC(CO)C(O)C1O (configuration not stated)		> 243		> 243		> 243		> 243						
CC1(C)[C@@H]2C[C@H]1C(Cc1ccccc1C[C@H]1c3cc(-c4ccccn4)ncc3[C@H]3C[C@@H]1C3(C)C)c1cc(-c3ccccn3)ncc12 (some centres not stated)	> 100		> 31.6		3.6		> 68			> 37.9	> 100			
C=C(/C=C/C=C(/CCC=C(C)C)COC(C)=O)[C@@H]1CC[C@]2([C@H](CCCO)/C(=C(/C)C=O)CC[C@]2(C)O)[C@@H]1O		30.4				33.3							28.8	TGI (HOP-18 NSCLC): 23.7 µM
CN(C)CCNc1ccc2nnn3c4ccc(Cl)cc4c(=O)c1c23	16.9	27.7	34.8	19.2	49.2	15.1	25.7	23.8	15.6	26.2	96.2	13.6		TGI (RXF-631 renal): 16.4 µM
CCCNCC(O)/C=C/[Si](C)(C)C (configuration not stated) (tested in a mixture with another compound)		> 100		> 100		> 100		74.8					> 100	TGI (RXF-631 renal): > 100 µM; TGI (HOP-18 NSCLC): > 100 µM
NC(Cc1ccc2oc3cc(=O)c4ccccc4c-3nc2c1)C(=O)O (configuration not stated)	14.8	> 66.6	40.5	> 100	> 84.7		> 100		> 100	32	11.2	> 100	41.1	TGI (HOP-18 NSCLC): 77.7 µM
COc1cc2c(cc1OC)C(C1(O)CCCCC1)NCC2 (configuration not stated)		> 100		> 100		> 100		> 100						
Cc1c(Cl)c(S(N)(=O)=O)cc(S(N)(=O)=O)c1NC(=O)c1ccc(Cl)cc1	> 100		> 100		> 100				> 100	> 100	> 100	> 100		
O=[N+]([O-])/C=C/c1cccc(F)c1	14		4.91		72.5		38.2			21.6	3	11.9		
C#CCCCCC#CC1CCCC1C1=CC(=O)c2ccccc21 (configuration not stated)		24.3						20.8					6.97	TGI (HOP-18 NSCLC): 25 µM
Oc1ccc2ccccc2c1N=Nc1ccc(N=Nc2ccccc2)cc1	> 100		> 100		> 100		> 100		> 100	> 100		> 100		
CCCCCCc1ccc(O)cc1O		> 100				98		> 100			> 100			TGI (HOP-18 NSCLC): > 92.5 µM
Nc1nc(Cl)cc(NCCCCO)n1		> 100		> 100		> 100							> 100	TGI (RXF-631 renal): > 100 µM
CCOC(=O)C1=C(C)N2CCCOC2(C)C(C(=O)OC)C1c1cccc([N+](=O)[O-])c1 (configuration not stated)				> 100		> 100							> 100	
CN[C@@H]1[C@H](O)[C@H](NC)[C@H]2O[C@@]3(O)C(=O)C[C@@H](C)O[C@H]3O[C@@H]2[C@H]1O	> 100		> 100		> 100		> 100			> 100	> 100	> 100		
Cc1ccccc1N=Nc1ccc(N=Nc2c(O)ccc3cc(S(=O)(=O)O)cc(S(=O)(=O)O)c23)c(C)c1			> 100				> 100		> 100		> 100	> 100		
